The source of these data is patent US5488110A, “Highly water soluble bis-naphthalimides useful as anticancer agents” (The Du Pont Merck Pharmaceutical Company, priority 1994, dated 1996).

Data set [1] is described as follows: UV Method For Determining Water Solubility. The data set is classed as physicochemical. The following applies: for solubility: water, room temperature, saturated solution standing over excess sample 15 to 20 hours, UV. The procedure: UV Method For Determining Water Solubility:
The ultraviolet spectrum is taken at room temperature of a saturated solution of the sample (saturated solution being defined as a water solution standing over excess sample for 15 to 20 hours with no heat being applied). A standard solution of the sample is obtained in water if possible. When the solubility in water is too low to do this (<1 mg/100 ml), a mg of the sample is dissolved in DMSO and diluted to 100 ml with water. Molar or gram extinction coefficients are calculated for the standard solutions and these values are used to determine the concentration of the saturated solution.

Data set [2] concerns murine leukemia L1210 cells. As to the kind of experiment: In vitro Growth Inhibitory Activity (MTT, 3 days). The note with it: Mus musculus, 72 h, 3 days at 37° C., read-out: ID50 (the source's name). The format is cell-based. The procedure: L1210 cells were maintained in RPMI=1640 a medium supplemented with 10% heat inactivated fetal bovine serum and […] (RPMI-L). B16 cells were maintained in RPMI-1640 medium supplemented with 15% heat inactivated fetal bovine serum and antiobiotics (RPMI-C).
Exponential growing murine leukemia L1210 cells (1×10^3 cells) in 0.1 mL medium were seeded on day 0 in a 96-well microtiter plate. On day 1, 0.1 mL aliquot of medium containing graded concentrations of test analogs was added to the initial volume. After incubation at 37° C. in a humidified incubator for 3 days, the plates were centrifuged briefly and 0.1 mL of the growth medium was removed. Cell cultures were incubated with 50 μL of 3-(4,5-dimethylthiazol-2-yl)-2,5- diphenyltetrazolium bromide (MTT; 1 mg/ml in Dulbecco's phosphate buffer saline) for 4 hours at 37° C. The resulting purple formazan precipitate was solubilized with 0.2 mL of 0.04N HCl in isopropyl alcohol. Absorbance was read in a Titertek Multiskan MCC scaning well spectrophotometer (Flow Laboratories) at a test wavelength of 570 nm and a reference wavelength of 630 nm.
The ID50 values were determined by a computer program that fit all of the data (8 determinations per concentration and 12 concentrations per test analog) to the following equation:
Y=((Am-Ao)/(1+(X/ID50)n))+Ao
where: Am=absorbance of the control cells; Ao=absorbance of the cells in the presence of highest drug concentration; Y=observed absorbance; X=drug concentration; ID50 =dose of drug that inhibits the growth of cells to one half that of the control cells.

In another data set the test system is DLD-2 human colon tumor. As to the kind of experiment: In Vivo Human Tumor Xenograft Model, DLD-2. Also noted: species or system human (xenografted in nude mice). The note with it: nude mice, i.v. once daily for nine consecutive days; NCI criteria. From the text:
(§1) The DLD-2 human colon tumor, MX-1 human mammary carcinoma, and LX-1 human lung tumor were originally obtained from a surgically removed primary colon carcinoma, breast tumor, and non-small lung carcinoma, respectively. The human tumor lines were maintained by serial passage in athymic nude mice. The MX-1 human mammary carcinoma and LX-1 human lung tumor are established tumors used by the NCI. The DLD-2, MX-1, and LX-1 tumor models have been well characterized.
The mice used in these experiments were outbred Swiss mice or BALB/c mice bearing the nude (nu/nu) gene. On day 0 male and female mice weighing 22-30 g are inoculated with 0.2 mL of a 25% tumor mince. This mince is prepared by mincing fresh tumor tissue, grown subcutaneously in passage mice, in sterile physiological saline. Palpable tumors weighing approximately 50 mg appear in the mice within 7-10 days after inoculation. The mice are pair matched by tumor weight and sex into groups of ten each and the test compounds and vehicle control are administered intravenously (i.v.) once daily for nine consecutive days. A >20% decrease in body weight on day 5 following compound administration is considered an indication of toxicity. Tumor measurements and body weights are recorded once a week. Fifteen to 18 days after the initial injection the mice are weighed, sacrificed and the tumors excised and weighed.
(§2) The efficacy of the test compounds is determined by the extent of tumor growth inhibition in treated versus vehicle-treated control mice. Initial tumor weights (mg) are calculated from the tumor dimensions (mm) measured from caliper measurements, using the formula for a prolate ellipsoid (mg of tumor weight=(length×width^2)/2). Net tumor weights are calculated for each of the treated groups and the vehicle-treated control group by subtracting the initial tumor weight from the final tumor weight on day 15. Results are expressed as a percentage decrease relative to the mean tumor weight for the control vehicle-treated group. [formula] Activity Criteria […]

The subject of the next data set is MX-1 human breast tumor. Nature of the data set: In Vivo Human Tumor Xenograft Model, MX-1. Also on record: species or system human (xenografted in nude mice). The following applies: nude mice, i.v. once daily for nine consecutive days; NCI criteria.
Text: as §1
(§3) The mice used in these experiments were outbred Swiss mice or BALB/c mice bearing the nude (nu/nu) gene. On day 0 male and female mice weighing 22-30 g are inoculated with 0.2 mL of a 25% tumor mince. […] Tumor measurements and body weights are recorded once a week. […]
as §2, with “group.” for “group. [formula] Activity Criteria”
For orientation: Xenograft models place foreign cells or tissue in a host animal.

For the next data set, the system named is LX-1 human lung tumor. Nature of the data set: In Vivo Human Tumor Xenograft Model, LX-1. Also on record: species or system human (xenografted in nude mice). The following applies: nude mice, i.v. once daily for nine consecutive days; NCI criteria.
Text: as §1, §3
as §2, with “group.” for “group. [formula] Activity Criteria”

In brackets after ≈: the same amount, converted by molar mass. Entries after “also recorded” stand apart in the source; their conditions may differ.

`CN(CCN(C)CCN1C(=O)c2cccc3cc([N+](=O)[O-])cc(c23)C1=O)CCN1C(=O)c2cccc3cc([N+](=O)[O-])cc(c23)C1=O` [Example 1, 2,2'-[1,2-Ethanediylbis(methylimino-2,1-ethanediyl)]-bis[5-nitro-1H-benz[de]isoquinoline-1,3(2H)-dione]methanesulfonate (1:2)]: the “water solubility (in words)” value in data set [1] (in words, relative to related compounds) was “unexpected increased water solubility; also recorded: dramatic unexpected increase in water solubility”. The solubility (commonly the concentration that dissolves in the medium under given conditions) in data set [1] was more than 26400 µg/mL. Further, the IC50 in data set [2] was 0.0115 µg/mL (≈ 0.0184 µM). Further, the “activity against DLD-2 human colon tumor in vivo (tumor growth inhibition)” value in the data set on DLD-2 human colon tumor is “excellent to outstanding”. Moreover, in the data set on MX-1 human breast tumor, the “activity against MX-1 human breast tumor in vivo (tumor growth inhibition)” value was “good to excellent (inhibition of ≥90% is considered good to excellent activity)”.
In data set [1], `O=C1c2cccc3cc([N+](=O)[O-])cc(c23)C(=O)N1CCNCCNCCN1C(=O)c2cccc3cc([N+](=O)[O-])cc(c23)C1=O` [Example 3, 2,2'-[1,2-Ethanediylbis(imino-2,1-ethanediyl)]-bis[5-nitro-1H-benz[de]isoquinoline-1,3(2H)-dione]methanesulfonate (1:2)] returned a solubility of 600 µg/mL (≈ 1010 µM). Also, in data set [2], the IC50 turned out to be 0.009 µg/mL (≈ 0.0151 µM). Further, in the data set on DLD-2 human colon tumor, the “activity against DLD-2 human colon tumor in vivo (tumor growth inhibition)” value is reported as “excellent to outstanding”. Further, the “activity against MX-1 human breast tumor in vivo (tumor growth inhibition)” value in the data set with MX-1 human breast tumor is given as “excellent to outstanding”. Moreover, the “activity against LX-1 human lung tumor in vivo (tumor growth inhibition)” value in the data set on LX-1 human lung tumor is reported as “moderate (Tumor growth inhibition of 58-89% in the DLD-2 assay is considered moderate activity)”.
`CN(CCNCCN1C(=O)c2cccc3cc([N+](=O)[O-])cc(c23)C1=O)CCN1C(=O)c2cccc3cc([N+](=O)[O-])cc(c23)C1=O` [Example 2, 2-[2-[N-methyl-N-[2-[[2-(5-nitro-1,2-dioxo-1H-benz[de]isoquinoline-2(3H)-yl)ethyl]amino]ethyl]amino]ethyl]-5-nitro-1H-benz[de]isoquinoline-1,3(2H)-dione methanesulfonate (1:2)] returned a solubility in data set [1] of 9600 µg/mL. Also, the IC50 in data set [2] was less than 0.01 µg/mL. Further, the “activity against DLD-2 human colon tumor in vivo (tumor growth inhibition)” value in the data set with DLD-2 human colon tumor is on record as “excellent to outstanding”.
